These cell lines were tested with COc1cc([C@@H]2c3cc4c(cc3[C@@H](O[C@@H]3O[C@@H]5CO[C@@H](C)O[C@H]5[C@H](O)[C@H]3O)[C@H]3COC(=O)[C@H]23)OCO4)cc(OC)c1O [Etoposide] + O=C(c1cc(Cc2n[nH]c(=O)c3ccccc23)ccc1F)N1CCN(C(=O)C2CC2)CC1 [Olaparib] (partner 8 µM) (assay: relative viability (nuclei count vs DMSO), 5 days (fraction); higher = more cells survive). Details: first compound 0.01 µM.
Procedure, shortened: (§1)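 Lung cancer cell lines were pin-tool dosed in 1536-well plates on the day after seeding, with either a lone drug or a fixed anchor-drug dose plus five library-drug doses (not always all listed) in √10 steps. Nuclei were counted on 4× images after 5 days. Relative viability is the ratio of treated-well to vehicle-well nuclei counts, with each value a median of duplicate plates.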

Question: Which relative viability does the source give for PC-3 [JPC-3] here?
Answer: Its relative viability is 0.992.

Question: Which relative viability does the source give for EKVX here?
Answer: The relative viability was 0.832.

Question: LC-2-ad was tested. Which relative viability did it give?
Answer: The relative viability was 0.349.

Question: NCI-H1944 was tested. Which relative viability did it give?
Answer: The relative viability was 0.378.

Question: How did the relative viability turn out when NCI-H1975 was run?
Answer: The relative viability was 0.688.

Question: Which relative viability does the source give for SK-LU-1 here?
Answer: Its relative viability is 0.407.

Question: For ABC-1, which relative viability is on record?
Answer: The relative viability was 0.79.

Question: How did the relative viability turn out when NCI-H358 was run?
Answer: Its relative viability is 0.692.

Question: How did the relative viability turn out when NCI-H661 was run?
Answer: The relative viability was 0.776.

Question: For RERF-LC-KJ, which relative viability is on record?
Answer: Its relative viability is 0.827.

Same assay, conditions: first compound 0.03162 µM

Question: For PC-3 [JPC-3], which relative viability is on record?
Answer: The relative viability was 0.928.

Question: Which relative viability does the source give for EKVX here?
Answer: The relative viability was 0.955.

Question: Which relative viability does the source give for LC-2-ad here?
Answer: Its relative viability is 0.692.

Question: NCI-H1944 was tested. Which relative viability did it give?
Answer: The relative viability was 0.417.

Question: NCI-H1975 was tested. Which relative viability did it give?
Answer: The relative viability was 1.02.

Question: Which relative viability does the source give for SK-LU-1 here?
Answer: The relative viability was 0.511.

Question: How did the relative viability turn out when ABC-1 was run?
Answer: The relative viability was 0.873.

Question: How did the relative viability turn out when NCI-H358 was run?
Answer: Its relative viability is 0.519.

Question: How did the relative viability turn out when NCI-H661 was run?
Answer: Its relative viability is 0.819.

Question: RERF-LC-KJ was tested. Which relative viability did it give?
Answer: Its relative viability is 0.877.

Same assay, conditions: first compound 0.1 µM

Question: How did the relative viability turn out when PC-3 [JPC-3] was run?
Answer: Its relative viability is 1.14.

Question: For EKVX, which relative viability is on record?
Answer: The relative viability was 0.658.

Question: LC-2-ad was tested. Which relative viability did it give?
Answer: The relative viability was 0.771.

Question: For NCI-H1944, which relative viability is on record?
Answer: Its relative viability is 0.305.

Question: With NCI-H1975 as the cell line, how does the relative viability read?
Answer: The relative viability was 0.881.

Question: SK-LU-1 was tested. Which relative viability did it give?
Answer: The relative viability was 0.348.

Question: With ABC-1 as the cell line, how does the relative viability read?
Answer: The relative viability was 0.663.

Question: Which relative viability does the source give for NCI-H358 here?
Answer: Its relative viability is 0.521.

Question: Which relative viability does the source give for NCI-H661 here?
Answer: Its relative viability is 0.686.

Question: For RERF-LC-KJ, which relative viability is on record?
Answer: The relative viability was 0.861.

Same assay, conditions: first compound 0.3162 µM

Question: With PC-3 [JPC-3] as the cell line, how does the relative viability read?
Answer: Its relative viability is 1.07.

Question: For EKVX, which relative viability is on record?
Answer: The relative viability was 0.647.

Question: How did the relative viability turn out when LC-2-ad was run?
Answer: The relative viability was 0.412.

Question: With NCI-H1944 as the cell line, how does the relative viability read?
Answer: Its relative viability is 0.265.

Question: For NCI-H1975, which relative viability is on record?
Answer: The relative viability was 0.487.

Question: How did the relative viability turn out when SK-LU-1 was run?
Answer: Its relative viability is 0.238.

Question: For ABC-1, which relative viability is on record?
Answer: The relative viability was 0.607.

Question: With NCI-H358 as the cell line, how does the relative viability read?
Answer: The relative viability was 0.104.

Question: How did the relative viability turn out when NCI-H661 was run?
Answer: Its relative viability is 0.463.

Question: For RERF-LC-KJ, which relative viability is on record?
Answer: The relative viability was 0.633.

Same assay, conditions: first compound 1 µM

Question: How did the relative viability turn out when PC-3 [JPC-3] was run?
Answer: Its relative viability is 0.794.

Question: Which relative viability does the source give for EKVX here?
Answer: Its relative viability is 0.293.

Question: With LC-2-ad as the cell line, how does the relative viability read?
Answer: The relative viability was 0.274.

Question: For NCI-H1944, which relative viability is on record?
Answer: The relative viability was 0.197.

Question: Which relative viability does the source give for NCI-H1975 here?
Answer: The relative viability was 0.252.

Question: How did the relative viability turn out when SK-LU-1 was run?
Answer: Its relative viability is 0.193.

Question: ABC-1 was tested. Which relative viability did it give?
Answer: The relative viability was 0.443.

Question: For NCI-H358, which relative viability is on record?
Answer: The relative viability was 0.0937.

Question: With NCI-H661 as the cell line, how does the relative viability read?
Answer: The relative viability was 0.471.

Question: How did the relative viability turn out when RERF-LC-KJ was run?
Answer: The relative viability was 0.417.

These cell lines were tested with COc1cc([C@@H]2c3cc4c(cc3[C@@H](O[C@@H]3O[C@@H]5CO[C@@H](C)O[C@H]5[C@H](O)[C@H]3O)[C@H]3COC(=O)[C@H]23)OCO4)cc(OC)c1O [Etoposide] + CC(=O)c1c(C)c2cnc(Nc3ccc(N4CCNCC4)cn3)nc2n(C2CCCC2)c1=O [Palbociclib] (partner 0.5 µM) in the same assay as above. Details: first compound 0.01 µM.
Procedure, shortened: as §1

Question: PC-3 [JPC-3] was tested. Which relative viability did it give?
Answer: Its relative viability is 0.481.

Question: How did the relative viability turn out when EKVX was run?
Answer: The relative viability was 0.358.

Question: How did the relative viability turn out when LC-2-ad was run?
Answer: The relative viability was 0.52.

Question: NCI-H1944 was tested. Which relative viability did it give?
Answer: The relative viability was 0.315.

Question: NCI-H1975 was tested. Which relative viability did it give?
Answer: The relative viability was 0.548.

Question: Which relative viability does the source give for SK-LU-1 here?
Answer: The relative viability was 0.381.

Question: For ABC-1, which relative viability is on record?
Answer: Its relative viability is 0.572.

Question: How did the relative viability turn out when NCI-H358 was run?
Answer: Its relative viability is 0.132.

Question: With NCI-H661 as the cell line, how does the relative viability read?
Answer: The relative viability was 0.415.

Question: RERF-LC-KJ was tested. Which relative viability did it give?
Answer: Its relative viability is 1.04.

Same assay, conditions: first compound 0.03162 µM

Question: PC-3 [JPC-3] was tested. Which relative viability did it give?
Answer: Its relative viability is 0.493.

Question: Which relative viability does the source give for EKVX here?
Answer: The relative viability was 0.434.

Question: For LC-2-ad, which relative viability is on record?
Answer: Its relative viability is 0.509.

Question: How did the relative viability turn out when NCI-H1944 was run?
Answer: Its relative viability is 0.358.

Question: With NCI-H1975 as the cell line, how does the relative viability read?
Answer: The relative viability was 0.665.

Question: How did the relative viability turn out when SK-LU-1 was run?
Answer: The relative viability was 0.397.

Question: How did the relative viability turn out when ABC-1 was run?
Answer: Its relative viability is 0.71.

Question: Which relative viability does the source give for NCI-H358 here?
Answer: The relative viability was 0.148.

Question: Which relative viability does the source give for NCI-H661 here?
Answer: The relative viability was 0.468.

Question: RERF-LC-KJ was tested. Which relative viability did it give?
Answer: Its relative viability is 1.19.

Same assay, conditions: first compound 0.1 µM

Question: Which relative viability does the source give for PC-3 [JPC-3] here?
Answer: The relative viability was 0.545.

Question: With EKVX as the cell line, how does the relative viability read?
Answer: The relative viability was 0.21.

Question: How did the relative viability turn out when LC-2-ad was run?
Answer: Its relative viability is 0.557.

Question: NCI-H1944 was tested. Which relative viability did it give?
Answer: The relative viability was 0.233.

Question: How did the relative viability turn out when NCI-H1975 was run?
Answer: Its relative viability is 0.521.

Question: SK-LU-1 was tested. Which relative viability did it give?
Answer: Its relative viability is 0.319.

Question: With ABC-1 as the cell line, how does the relative viability read?
Answer: Its relative viability is 0.529.

Question: NCI-H358 was tested. Which relative viability did it give?
Answer: Its relative viability is 0.131.

Question: NCI-H661 was tested. Which relative viability did it give?
Answer: Its relative viability is 0.332.

Question: RERF-LC-KJ was tested. Which relative viability did it give?
Answer: Its relative viability is 0.918.

Same assay, conditions: first compound 0.3162 µM

Question: How did the relative viability turn out when PC-3 [JPC-3] was run?
Answer: The relative viability was 0.56.

Question: Which relative viability does the source give for EKVX here?
Answer: Its relative viability is 0.375.

Question: With LC-2-ad as the cell line, how does the relative viability read?
Answer: Its relative viability is 0.455.

Question: How did the relative viability turn out when NCI-H1944 was run?
Answer: Its relative viability is 0.231.

Question: NCI-H1975 was tested. Which relative viability did it give?
Answer: The relative viability was 0.331.

Question: How did the relative viability turn out when SK-LU-1 was run?
Answer: Its relative viability is 0.247.

Question: How did the relative viability turn out when ABC-1 was run?
Answer: Its relative viability is 0.515.

Question: How did the relative viability turn out when NCI-H358 was run?
Answer: Its relative viability is 0.104.

Question: For NCI-H661, which relative viability is on record?
Answer: Its relative viability is 0.384.

Question: For RERF-LC-KJ, which relative viability is on record?
Answer: The relative viability was 0.912.

Same assay, conditions: first compound 1 µM

Question: Which relative viability does the source give for PC-3 [JPC-3] here?
Answer: Its relative viability is 0.526.

Question: EKVX was tested. Which relative viability did it give?
Answer: Its relative viability is 0.282.

Question: Which relative viability does the source give for LC-2-ad here?
Answer: The relative viability was 0.452.

Question: With NCI-H1944 as the cell line, how does the relative viability read?
Answer: The relative viability was 0.198.

Question: For NCI-H1975, which relative viability is on record?
Answer: Its relative viability is 0.281.

Question: Which relative viability does the source give for SK-LU-1 here?
Answer: The relative viability was 0.22.

Question: Which relative viability does the source give for ABC-1 here?
Answer: Its relative viability is 0.419.

Question: With NCI-H358 as the cell line, how does the relative viability read?
Answer: Its relative viability is 0.0757.

Question: How did the relative viability turn out when NCI-H661 was run?
Answer: Its relative viability is 0.352.

Question: With RERF-LC-KJ as the cell line, how does the relative viability read?
Answer: Its relative viability is 0.606.

Reference: the supplement of paper PMC10307832
